In article PMC10058827, “A New Way to 2,3,4-Trisubstituted Benzo[h]quinolines: Synthesis, Consecutive Reactions and Cellular Activities” (Molecules, 2023):
Like-named read-outs stand apart in the source and are kept apart here.

What was measured:
Type in all cases: cell-based
[1] = test system: conditional immortalized human fibroblast cell line FS4-LTM; experiment: Antiproliferative WST-1 assay; settings: WST-1, 24 h
Description: (§1) In addition to probing effects on bacterial pathogens, the compounds’ ability to interfere with the proliferation and/or viability of four mammalian cell lines was assessed by quantifying their mitochondrial dehydrogenase activity in a colorimetric assay with the tetrazolium dye WST-1. […] The effects of the compounds on cell viability were probed with a WST-1 test using the procedure of Ishiyama et al. as modified by Sasse et al.. […] Briefly, the subconfluent cells were washed with Earle’s Balanced Salt Solution (Gibco) without Ca and Mg ions, trypsinized, and re-suspended in Dulbecco’s modified eagle’s medium that contained 5% fetal bovine serum (FBS; L929, KB-3-1, FS4-LTM) or Roswell Park Memorial Institute medium that contained 5% FBS, 0.5% Minimum Essential Medium Non-Essential Amino Acids, Gibco (MEM NEAA), 0.5% GlutaMAX (Gibco), and insulin at 5 μg/mL (MCF-7). […] The blank and solvent controls were incubated under identical conditions. After an incubation period of 5 days (for L929, KB-3-1, and MCF-7) or 24 h (for FS4-LTM), 3 μL of WST-1 (ready-to-use solution by Roche) was added. The incubation time of the plates at 37 °C varied between the cell lines from 20 min for KB-3-1, 30 min for L929, 1 h for FS4-LTM, to 2 h for MCF-7, before measuring absorbance at 450 nm (reference 600 nm) with an Infinite 200 PRO plate reader (Tecan, Männedorf, Switzerland). As the positive control compounds, Auranofin and Staurosporin were applied. The absorbance of the solvent control was set to 100%. The EC50 values were determined with Sigma Plot.

[2] = test system: human cervical carcinoma cell line KB-3-1; experiment: Antiproliferative WST-1 assay; settings: WST-1, 5 days
Description: as §1

[3] = test system: mouse fibroblast cell line L929; experiment: Antiproliferative WST-1 assay; settings: WST-1, 5 days
Description: as §1

[4] = test system: human breast cancer cell line MCF-7; experiment: Antiproliferative WST-1 assay; settings: WST-1, 5 days
Description: (§2) In addition to probing effects on bacterial pathogens, the compounds’ ability to interfere with the proliferation and/or viability of four mammalian cell lines was assessed by quantifying their mitochondrial dehydrogenase activity in a colorimetric assay with the tetrazolium dye WST-1.
The effects of the compounds on cell viability were probed with a WST-1 test using the procedure of Ishiyama et al. as modified by Sasse et al.. […] Briefly, the subconfluent cells were washed with Earle’s Balanced Salt Solution (Gibco) without Ca and Mg ions, trypsinized, and re-suspended in Dulbecco’s modified eagle’s medium that contained 5% fetal bovine serum (FBS; L929, KB-3-1, FS4-LTM) or Roswell Park Memorial Institute medium that contained 5% FBS, 0.5% Minimum Essential Medium Non-Essential Amino Acids, Gibco (MEM NEAA), 0.5% GlutaMAX (Gibco), and insulin at 5 μg/mL (MCF-7). […] The blank and solvent controls were incubated under identical conditions. After an incubation period of 5 days (for L929, KB-3-1, and MCF-7) or 24 h (for FS4-LTM), 3 μL of WST-1 (ready-to-use solution by Roche) was added. The incubation time of the plates at 37 °C varied between the cell lines from 20 min for KB-3-1, 30 min for L929, 1 h for FS4-LTM, to 2 h for MCF-7, before measuring absorbance at 450 nm (reference 600 nm) with an Infinite 200 PRO plate reader (Tecan, Männedorf, Switzerland). As the positive control compounds, Auranofin and Staurosporin were applied. The absorbance of the solvent control was set to 100%. The EC50 values were determined with Sigma Plot.

[5] = test system: Staphylococcus aureus MRSA (DSM 11822); experiment: Antibacterial growth inhibition screen, residual growth in % (OD600); settings: for activity at 5 µM: Staphylococcus aureus, strain DSM 11822, compound concentration 5 µM, 18 h at 37 °C; for activity against MRSA (in words): growth inhibition assay
Description: (§3) Overnight cultures of the bacteria were grown aerobically at 37 °C in Müller–Hinton broth with added 1% glucose and a pH of 7.2 for Gram-negative strains, or with a Trypticase soy yeast extract medium (TSY—30 g/L Trypticase soy broth, 3 g/L yeast extract, pH 7.2) for Gram-positive strains. […] A total of 25 μL of test culture was added to 25 μL of a serial dilution of the test compounds in the appropriate medium for the different strains in accordance with standardized procedures in 384-well plates. For screening purposes, the residual absorbance in % was tested at the compound concentrations of 5 and 50 µM. For the selected compounds, the concentration-dependent growth inhibition curves were recorded from the stock solutions in DMSO at the final concentrations of 100, 50, 25, 12.5, 6,25, 3.125, 1.56, 0.78, 0.39, and 0.2 µM. As the positive control compounds, Linezolid (both MRSA strains) Ciprofloxacin (E. faecium, E. coli), and Amikacin (P. aeruginosa) were applied. The highest DMSO concentration in the assay was 1%, which had no apparent effect on the growth of the bacteria. After an incubation time of 18 h at 37 °C under moist conditions, the optical density at 600 nm was measured with a Fusion Universal Microplate Analyzer (Perkin–Elmer, Waltham, MA, USA). […] The following bacterial strains were used: Gram-negative: Escherichia coli (DSM 1116) and Pseudomonas aeruginosa PA7 (DSM 24068), and Gram-positive: Staphylococcus aureus MRSA (clinical isolate, RKI 11-02670) and Staphylococcus aureus MRSA (DSM 11822). The MIC values were determined by curve fitting with Sigma Plot.

[6] = test system: Staphylococcus aureus MRSA (clinical isolate, RKI 11-02670); experiment: Antibacterial MIC determination, concentration-dependent growth inhibition
Description: as §3

[7] = test system: four mammalian cell lines (L929, KB-3-1, MCF-7, FS4-LTM); experiment: Antiproliferative WST-1 assay, range over all four cell lines; settings: 5 days (L929, KB-3-1, MCF-7) or 24 h (FS4-LTM)
Description: as §2
The effects of the compounds on cell viability were probed with a WST-1 test using the procedure of Ishiyama et al. as modified by Sasse et al.. […] Briefly, the subconfluent cells were washed with Earle’s Balanced Salt Solution (Gibco) without Ca and Mg ions, trypsinized, and re-suspended in Dulbecco’s modified eagle’s medium that contained 5% fetal bovine serum (FBS; L929, KB-3-1, FS4-LTM) or Roswell Park Memorial Institute medium that contained 5% FBS, 0.5% Minimum Essential Medium Non-Essential Amino Acids, Gibco (MEM NEAA), 0.5% GlutaMAX (Gibco), and insulin at 5 μg/mL (MCF-7). […] After an incubation period of 5 days (for L929, KB-3-1, and MCF-7) or 24 h (for FS4-LTM), 3 μL of WST-1 (ready-to-use solution by Roche) was added. The incubation time of the plates at 37 °C varied between the cell lines from 20 min for KB-3-1, 30 min for L929, 1 h for FS4-LTM, to 2 h for MCF-7, before measuring absorbance at 450 nm (reference 600 nm) with an Infinite 200 PRO plate reader (Tecan, Männedorf, Switzerland). […] The absorbance of the solvent control was set to 100%. The EC50 values were determined with Sigma Plot.

[8] = strain RKI 11-02670, 18 h at 37 °C, read-out: MRSA MIC
[9] = strain RKI 11-02670, converted from µM, read-out: MRSA MIC (µg/mL values in brackets)

| EC50 ([2]; Homo sapiens, KB 3-1, 120 h) [µM] | EC50 ([4]; Homo sapiens, MCF7, 120 h) [µM] | SMILES | activity at 5 µM [5] [%] | activity against MRSA (in words) [5] | EC50 ([1]; Homo sapiens, FS4-LTM) [µM] | EC50 ([3]; Mus musculus, L929, 120 h) [µM] | other results |
| --- | --- | --- | --- | --- | --- | --- | --- |
| – | – | CC(=O)OC[C@H]1O[C@@H]([S-])[C@H](OC(C)=O)[C@@H](OC(C)=O)[C@@H]1OC(C)=O.CCP(CC)CC.[Au+] [Auranofin, reference compound] | – | – | – | – | EC50 [1]: 1.3 µM; EC50 [2]: 0.6 µM; EC50 [3]: 0.4 µM; EC50 [4]: 3.5 µM |
| – | – | CCOC(=O)CSc1nc2c(ccc3cc4ccccc4cc32)c(C(Cl)Cl)c1[N+](=O)[O-] [Compound 6, Ethyl 2-((4-(dichloromethyl)-3-nitronaphtho[2,3-h]quinolin-2-yl)thio)acetate] | 112 | inactive | – | – | – |
| 3.8 | 3.5 | CCOC(=O)C[S+]([O-])c1nc2c(ccc3ccccc32)c(C(Cl)Cl)c1[N+](=O)[O-] (centres unmarked) [Compound 8, Ethyl 2-((4-(dichloromethyl)-3-nitrobenzo[h]quinolin-2-yl)sulfinyl)acetate] | 1 | – | 3.4 | 2.5 | MIC [6, 8]: 17.5 µM; MIC [6, 9]: 7.7 µg/mL; EC50 [7]: 2.5 to 3.8 µM |
| < 0.1 | > 50 | O=[N+]([O-])c1c(Sc2ccc(F)cc2)nc2c(ccc3ccccc32)c1C(Cl)Cl [Compound 10d, 4-(Dichloromethyl)-2-((4-fluorophenyl)thio)-3-nitrobenzo[h]quinoline] | 98.4 | complete loss of activity | > 50 | > 50 | – |
| > 50 | 19 | O=[N+]([O-])c1c(N2CCCCC2)nc2c(ccc3ccccc32)c1C(Cl)Cl [Compound 11a, 4-(Dichloromethyl)-3-nitro-2-(piperidin-1-yl)benzo[h]quinoline] | 95.6 | inactive | > 50 | > 50 | – |
| 10 | 50 | O=[N+]([O-])c1c(N2CCOCC2)nc2c(ccc3ccccc32)c1C(Cl)Cl [Compound 11b, 4-(4-(Dichloromethyl)-3-nitrobenzo[h]quinolin-2-yl)morpholine] | 123 | inactive | > 50 | 27 | – |
| 3.1 | > 50 | O=[N+]([O-])c1c([S+]([O-])c2ccc(F)cc2)nc2c(ccc3ccccc32)c1C(Cl)Cl (centres unmarked) [Compound 12, 4-(Dichloromethyl)-2-((4-fluorophenyl)sulfinyl)-3-nitrobenzo[h]quinoline] | 2 | – | 4.4 | 3.3 | MIC [6, 8]: 1.2 µM; MIC [6, 9]: 0.5 µg/mL |
| 6.9 | 17 | O=C(O)CSc1nc2c(ccc3ccccc32)c(C(Cl)Cl)c1[N+](=O)[O-] [Compound 13, 2-((4-(Dichloromethyl)-3-nitrobenzo[h]quinolin-2-yl)thio)acetic acid] | 1 | high activity | 15.7 | 45 | MIC [6, 8]: 8.4 µM; MIC [6, 9]: 3.3 µg/mL; EC50 [7]: 6.9 to 45 µM |
| – | – | O=[N+]([O-])C(C(Cl)=C(Cl)Cl)=C(n1cccn1)n1cccn1 [Compound 16c, 1,1’-(3,4,4-Trichloro-2-nitrobuta-1,3-diene-1,1-diyl)bis(1H-pyrazole)] | 126 | no activity | – | – | – |
| – | – | O=[N+]([O-])/C(C(Cl)=C(Cl)Cl)=C(\Nc1cccc2ccccc12)n1nnc2ccccc21 [Compound 17a, (E)-N-(1-(1H-Benzo[d][1,2,3]triazol-1-yl)-3,4,4-trichloro-2-nitrobuta-1,3-dien-1-yl)naphthalen-1-amine] | 120 | – | – | – | – |
| – | – | O=[N+]([O-])/C(C(Cl)=C(Cl)Cl)=C(\Nc1cccc2ccccc12)n1cncn1 [Compound 17b, (E)-N-(3,4,4-Trichloro-2-nitro-1-(1H-1,2,4-triazol-1-yl)buta-1,3-dien-1-yl)naphthalen-1-amine] | 112 | – | – | – | – |
| – | – | O=[N+]([O-])/C(C(Cl)=C(Cl)Cl)=C(\Nc1cccc2ccccc12)n1cccn1 [Compound 17c, (E)-N-(3,4,4-Trichloro-2-nitro-1-(1H-pyrazol-1-yl)buta-1,3-dien-1-yl)naphthalen-1-amine] | 101 | – | – | – | – |
| – | – | O=[N+]([O-])c1c(-n2nnc3ccccc32)nc2c(ccc3ccccc32)c1C(Cl)Cl [Compound 18a, 2-(1H-Benzo[d][1,2,3]triazol-1-yl)-4-(dichloromethyl)-3-nitrobenzo[h]quinoline] | 95.1 | – | – | – | – |
| – | – | O=[N+]([O-])c1c(-n2cncn2)nc2c(ccc3ccccc32)c1C(Cl)Cl [Compound 18b, 4-(Dichloromethyl)-3-nitro-2-(1H-1,2,4-triazol-1-yl)benzo[h]quinoline] | 107 | – | – | – | – |
| – | – | O=[N+]([O-])c1c(-n2cccn2)nc2c(ccc3ccccc32)c1C(Cl)Cl [Compound 18c, 4-(Dichloromethyl)-3-nitro-2-(1H-pyrazol-1-yl)benzo[h]quinoline] | 110 | – | – | – | – |
| – | – | CC(=O)NC[C@H]1CN(c2ccc(N3CCOCC3)c(F)c2)C(=O)O1 [Linezolid, reference compound] | 1 | – | – | – | MIC [6, 8]: 0.4 µM |

| SMILES | EC50 ([2]; Homo sapiens, KB 3-1, 120 h) [µM] | EC50 ([4]; Homo sapiens, MCF7, 120 h) [µM] | activity at 5 µM [5] [%] | activity against MRSA (in words) [5] | EC50 ([1]; Homo sapiens, FS4-LTM) [µM] | EC50 ([3]; Mus musculus, L929, 120 h) [µM] | other results |
| --- | --- | --- | --- | --- | --- | --- | --- |
| CN[C@@H]1C[C@H]2O[C@@](C)([C@@H]1OC)n1c3ccccc3c3c4c(c5c6ccccc6n2c5c31)C(=O)NC4 [Staurosporine, reference compound] | – | < 0.14 | – | – | – | – | – |
